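Briefly, cells in 96-well plates were exposed to five compound concentrations for 48 h, and endpoints were estimated by linear interpolation. Abbreviation: GI50, concentration required for 50% inhibition of growth. TGI marks complete inhibition of growth.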
How the values were obtained:
Experiment in all cases: NCI anticancer screen, dose series, 48 h
[1] = test system: BT-549 breast
[2] = test system: NCI-H226 lung
[3] = test system: HS 578T breast
[4] = test system: SK-OV-3 ovarian
[5] = test system: CAKI-1 renal
[6] = test system: NCI/ADR-RES ovarian

Row | SMILES | GI50 [1] | TGI [1] | GI50 [2] | TGI [2] | GI50 [3] | TGI [3] | GI50 [4] | TGI [4] | GI50 [5] | TGI [5] | GI50 [6] | TGI [6]
1 | N=C(N)c1ccc(-c2ccc(-c3cc(Cl)cc(Cl)c3)s2)s1 | 4.37 µM | > 100 µM | 30.8 µM | 65.4 µM | 2.15 µM | 5 µM | 3.62 µM | 17.1 µM | 1.72 µM | 3.35 µM |  | 
2 | Cc1c2c(cc[n+]1Cc1ccc(F)cc1)c1ccc(OCc3cccc(F)c3)cc1n2Cc1cccc(F)c1 |  |  |  |  |  |  | 1.81 µM | 3.28 µM | 2.02 µM | 5.55 µM | 8.62 µM | > 100 µM

Source: PubChem BioAssay (NCI)
